Test results from paper PMC10244169, “Psychedelics promote plasticity by directly binding to BDNF receptor TrkB” (Nature Neuroscience, 2023).

Key:
TrkB S440A = biological target: T1, TrkB S440A (Rattus norvegicus, UniProt Q63604, S440A); test: ^3H-LSD saturation binding, TrkB mutant
T1 construct: expressed in transfected cells; host or cells: HEK293T

mice = test: Contextual fear conditioning, extinction and fear reinstatement (incl. baseline locomotor activity); assay type: in vivo, mouse; conditions: for Mean, figure 7k (contextual fear conditioning) / Mean, figure 7i (contextual fear conditioning) / Mean, figure 7j (contextual fear conditioning): LSD group; for Mean Diff., ext fig 7e: e7e; for Mean Diff., ext fig 7f: e7f; for Mean Diff., ext fig 7o: e7o, Bonferroni's multiple comparisons test
Method: Male WT mice (C57BL/6JRccHsd, Envigo) were used for contextual fear conditioning experiments with and without extinction training as previously described[11],[34] with modifications. Briefly, animals were conditioned in context A (metallic bar flooring, transparent Plexiglass walls, 23 × 23 × 35 cm arena) with a series of five scrambled foot shocks (0.6 mA, 2 s) along a 480 s session. […] During the following 3 days, mice were exposed to extinction training in context A for 480 s every 24 h or placed for the same duration and number of sessions in context B (black planar floor, black nontransparent walls, 23 × 23 × 35 cm arena), which we categorized as extinction and no extinction trainings, respectively. Afterwards, animals were placed back into their home cage and left undisturbed for 3 weeks. Finally, all mice were reconditioned with a new set of five scrambled foot shocks (0.6 mA, 2 s) along a 480 s session in context A, and their fear reinstatement response was measured 24 h later for the same duration also in context A. All sessions were conducted under constant illumination (100 lux). For the contextual fear conditioning and fear reinstatement experiment with male WT and Y433F^+/−, we used the same protocol as for animals undergoing extinction training in context A above. Baseline freezing was established during the first conditioning session. Movement was measured by infrared beams placed on the sides of the conditioning chamber, and freezing was automatically determined by the fear conditioning apparatus and software (TSE Systems) and expressed as the percentage of time spent freezing.

Bdnf mRNA = test: RT–qPCR of Bdnf mRNA in cortical neurons; conditions: for Bdnf mRNA, group mean (5f): LSD 100 nM
[1] = test system: TrkB cell surface retention; test: Cell surface retention of TrkB in cortical neurons; assay type: cell-based, rat
Method: The cell surface retention of TrkB was measured as previously described[11],[82]. […] For antagonist experiments, cultures were pretreated with M100907 (100 nM) for 10 min and remained present for the rest of the experiment. After washing with PBS and incubating for 1 h with blocking buffer (5% nonfat dry milk and 5% BSA) at room temperature, plates were incubated with goat anti-TrkB antibody (R&D Systems, AF1494; 1:1,000, overnight, 4 °C). After further PBS washes, plates were incubated with HRP-conjugated […] antibody (Bio-Rad, 170–5046; 1:5,000, 1 h, room temperature). Finally, wells were washed with PBS and the chemiluminescent signal was read after brief incubation with Pierce ECL substrate (Thermo Fisher Scientific, 32106).

TrkA.TM chimera = test: ^3H-LSD saturation binding, TrkB with TMD of TrkA; conditions: TMD of TrkB replaced by that of TrkA
Method: Binding assays were performed as previously described with minor modifications. […] Samples from mouse embryo (E18) brains were also lysed, vortexed, sonicated and centrifuged for binding assays. Plates were then washed with PBS. […] For the competition binding assays with biotinylated R,R-HNK, the amino-biotinylation of R,R-HNK was performed using a commercial kit (Thermo Scientific, EZ-Link NHS-PEG4 Biotinylation Kit, 21455) and the reaction monitored by MS. A mixture of biotinylated R,R-HNK (10 µM) and unlabeled compounds (1 pM to 10 µM) in PBS was added to the 96-well plates containing the immunoprecipitated TrkB and incubated for 1 h at room temperature. […] Luminescence was determined via streptavidin conjugated with horseradish peroxidase (HRP; Thermo Fisher Scientific, 21126; 1:5,000, 1 h at room temperature) in reaction with the Pierce ECL substrate (Thermo Fisher Scientific, 32106). Luminescence from blank wells that contained all reagents but the sample lysates was used to determine nonspecific binding. To obtain the binding curves, results from binding assays were fitted to the equation of specific binding with Hill slope from GraphPad Prism 9.2. To calculate koff values, results were fitted to the equation of dissociation of one phase exponential decay from GraphPad Prism 9.2.

[2] = WT:Saline vs. WT:LSD, uncorrected Fisher's LSD
[3] = Y433F+/-:Saline vs. Y433F+/-:LSD, uncorrected Fisher's LSD
[4] = WT mice, saline minus LSD, uncorrected Fisher's LSD
[5] = Y433F+/- mice, saline minus LSD, uncorrected Fisher's LSD
[6] = means over WT and Y433F+/- mice

T1 sequence (Q63604 32-821 S440A): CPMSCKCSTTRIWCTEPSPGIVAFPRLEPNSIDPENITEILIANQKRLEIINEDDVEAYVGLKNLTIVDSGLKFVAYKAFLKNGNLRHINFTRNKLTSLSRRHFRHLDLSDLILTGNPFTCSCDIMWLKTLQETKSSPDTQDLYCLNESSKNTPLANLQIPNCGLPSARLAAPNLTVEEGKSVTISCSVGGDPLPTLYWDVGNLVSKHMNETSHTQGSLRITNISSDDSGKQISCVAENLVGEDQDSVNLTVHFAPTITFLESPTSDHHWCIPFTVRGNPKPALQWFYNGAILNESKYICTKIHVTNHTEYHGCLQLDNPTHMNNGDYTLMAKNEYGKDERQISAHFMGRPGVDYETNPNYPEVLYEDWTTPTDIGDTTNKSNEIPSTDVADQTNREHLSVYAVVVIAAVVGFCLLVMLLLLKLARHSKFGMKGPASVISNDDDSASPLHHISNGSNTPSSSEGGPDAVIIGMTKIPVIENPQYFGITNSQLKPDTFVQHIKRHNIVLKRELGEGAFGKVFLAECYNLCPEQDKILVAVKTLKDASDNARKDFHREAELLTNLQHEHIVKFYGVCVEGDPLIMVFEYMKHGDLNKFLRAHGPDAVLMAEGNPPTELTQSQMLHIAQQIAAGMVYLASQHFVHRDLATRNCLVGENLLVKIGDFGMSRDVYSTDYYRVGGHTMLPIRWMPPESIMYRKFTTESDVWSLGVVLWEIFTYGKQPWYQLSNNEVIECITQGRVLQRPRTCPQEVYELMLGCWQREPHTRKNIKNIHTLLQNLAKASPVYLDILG

## CCN(CC)C(=O)C1C=C2c3cccc4[nH]cc(c34)CC2N(C)C1 (stereo not drawn) [LSD, lysergic acid diethylamide]
TrkB S440A
  Kd: 0.714 nM
TrkB S440A; S440A
  Bmax (best-fit, 1a): 114.7
  h (best-fit, 1a): 1.945
TrkB S440A; S440A mutation
  LSD binding: did not influence LSD binding
mice; [2]
  Mean Diff., Fig. 7i: 14.87
  Mean Diff., Fig. 7j: 16.98
  Mean Diff., ext fig 7e: -2.065
  Mean Diff., ext fig 7f: -1.252
mice; [3]
  Mean Diff., Fig. 7i: -1.67
  Mean Diff., Fig. 7j: -1.138
  Mean Diff., ext fig 7e: -2.882
  Mean Diff., ext fig 7f: -6.692
mice; Ext.:Saline vs. Ext.:LSD, uncorrected Fisher's LSD
  Mean Diff., Fig. 7k: 21.67
mice; No ext.:Saline vs. No ext.:LSD, uncorrected Fisher's LSD
  Mean Diff., Fig. 7k: 7.778
mice; Ext. (extinction training)
  Mean, figure 7k (contextual fear conditioning): 20.42
mice; Ext., saline minus LSD, uncorrected Fisher's LSD
  Mean Diff., figure 7k, Ext.:Saline vs. Ext.:LSD: 21.67
mice; LSD alone, no extinction training
  fear extinction without extinction training: does not bring about fear extinction
mice; No ext.
  Mean, figure 7k (contextual fear conditioning): 44.56
mice; No ext., saline minus LSD, uncorrected Fisher's LSD
  Mean Diff., figure 7k, No ext.:Saline vs. No ext.:LSD: 7.778
mice; WT mice, 72 h after single administration, persists at least 4 weeks, with extinction training
  contextual extinction of conditioned fear response: facilitates contextual extinction of conditioned fear response
mice; WT mice
  Mean, figure 7i (contextual fear conditioning): 20.6
  Mean, figure 7j (contextual fear conditioning): 39.47
mice; [4]
  Mean Diff., figure 7i, WT:Saline vs. WT:LSD: 14.87
  Mean Diff., figure 7j, WT:Saline vs. WT:LSD: 16.98
mice; Y433F+/- mice
  Mean, figure 7i (contextual fear conditioning): 34.18
  Mean, figure 7j (contextual fear conditioning): 54.05
mice; [5]
  Mean Diff., figure 7i, Y433F+/-:Saline vs. Y433F+/-:LSD: -1.67
  Mean Diff., figure 7j, Y433F+/-:Saline vs. Y433F+/-:LSD: -1.138
mice; Y433F^+/− mice
  contextual extinction of conditioned fear response: these short- and long-term effects are lost
mice; Ext.:Saline vs. Ext.:LSD
  Mean Diff., ext fig 7o: 6.343
mice; No ext.:Saline vs. No ext.:LSD
  Mean Diff., ext fig 7o: -0.7639
mice; mean over WT and Y433F+/- mice
  Predicted (LS) mean of LSD, figure 7i: 27.39
  Predicted (LS) mean of LSD, figure 7j: 46.76
mice; [6]
  Difference between predicted means (Saline - LSD), figure 7i: 6.598
  Difference between predicted means (Saline - LSD), figure 7j: 7.923
Bdnf mRNA; 1 h, fold change, 1 h vehicle 1
  Bdnf mRNA, group mean (5f): 2.028
Bdnf mRNA; 24 h
  Bdnf mRNA, group mean (5f): 0.7739
Bdnf mRNA; 72 h
  Bdnf mRNA, group mean (5f): 0.7626
Bdnf mRNA; after LSD treatment
  Bdnf mRNA: upregulated at 1 h
Bdnf mRNA; vehicle 1.015
  Bdnf mRNA, predicted (LS) mean over timepoints (5f): 1.188
[1]
  TrkB cell surface retention: increases TrkB cell surface retention independently of 5-HT2A activation
TrkA.TM chimera
  LSD binding: completely abolishes LSD binding
